Patent US12618847B2 (Purdue Research Foundation, priority 2020, dated 2026)
Where no end group is shown, it is not given here. [ ]: non-standard residue; d: D form. Phe(4-Cl) = N[C@@H](Cc1ccc(Cl)cc1)C(=O)O

What was measured:
[1] = system: SH-SY5Y; assay: TAS2 rate of hydrolysis in live cells; assay type: cell-based; conditions: TAS2 10 μM, 5,000 cells/well
Experimental: (§1) To compare these cells lines, each was plated at the same density of 5,000 cells/well in a black 96 well plate—for adherent cells lines A498, SK-MEL-2, MEL-92.1, SH-SY5Y and HEK293T, the cells were allowed to adhere overnight before using in the assay; MM.1R cells were plated and used directly after. Samples were incubated with either DMSO or TAS2 (10 μM) for 15 min, washed with PBS three times before putting the plate in a microplate reader to record the fluorescence intensity over 90 min. The experiment was performed in technical triplicate and experimental duplicate for each cell line and the rate of hydrolysis of TAS-2 was determined, Table 2.

[2] = system: MEL-92.1; assay: TAS2 rate of hydrolysis in live cells; assay type: cell-based; conditions: MEL-92.1, TAS2 10 μM, 5,000 cells/well
Experimental: as §1

[3] = system: A498; assay: TAS2 rate of hydrolysis in live cells; assay type: cell-based; conditions: A498, TAS2 10 μM, 5,000 cells/well
Experimental: as §1

[4] = system: HEK-293T; assay: TAS2 rate of hydrolysis in live cells; assay type: cell-based; conditions: TAS2 10 μM, 5,000 cells/well
Experimental: as §1

[5] = system: MM.1R; assay: TAS2 rate of hydrolysis in live cells; assay type: cell-based; conditions: TAS2 10 μM, 5,000 cells/well
Experimental: as §1

[6] = system: SK-MEL-2; assay: TAS2 rate of hydrolysis in live cells; assay type: cell-based; conditions: SK-MEL-2, TAS2 10 μM, 5,000 cells/well
Experimental: as §1

[7] = system: A549 cells; assay: Probe cleavage in live A549 cells with or without MG-132 pretreatment; assay type: cell-based; conditions: 10 μM probe, 5,000 cells/well, 90 min
Experimental: We next sought to determine if the TAS probes would be suitable for cell-based assays. To accomplish this, A549 cells were plated at a density of 5,000 cells/well in a black 96 well plate with a black bottom. After allowing the cells to adhere to the plate, the samples were washed with PBS three times then dosed with 10 μM of each probe in modified KRBH buffer. The change in fluorescence was recorded on a microplate reader for 90 min. After allowing the signal to equilibrate for […], each sample was set to zero and the future time points were scaled accordingly. As was done with the biochemical data, a linear regression was fit to each set of data. From the slope, it is observed that the rate for TAS2 was the highest. To determine the in-cell selectivity, a set of samples pretreated with MG-132 (10 μM), a proteasome inhibitor, was included for each probe. These samples were pre-incubated with MG-132 in cell culture media for one hour before washing with PBS and dosing with each probe in modified KRBH buffer. […] To ensure this decrease was not a consequence of cell death, cells were treated in the same way and analyzed using Cell-Titer Glo.

[8] = target: 20S CP (Homo sapiens, UniProt P20618+P28074); assay: Fluorescence hydrolysis of probes by purified 20S CP (plate reader); assay type: biochemical; conditions: 30 μM probe
Experimental: The peptide recognition sequence used was based on the commercially available 4-mer AMC probe (FIG. 1A), specifically Leu-Leu-Val-Tyr (SEQ ID NO: 1), to generate TAS1 (FIG. 1B). To determine if TAS1 had any enhanced sensitivity, the two probes were compared under the same conditions with purified 20S CP. Briefly, the probes were incubated in triplicate at 10 and 30 μM with 9 nM […] at 37° C. The change in fluorescence was monitored for two hours and the endpoint values were averaged and graphed for comparison (FIG. 1C). Because the two fluorophores have different excitation and emission wavelengths, the two experiments were performed separately but using the same conditions for the plate reader (i.e. gain, number of flashes, settling time, etc.). […] Since, unlike Suc-LLVY-AMC (SEQ ID NO: 1), TAS1 has the potential to have more than one cleavage site which could result in an increase in fluorescence (on either side of Rh110), we confirmed that the increase in signal is only from the recognition and cleavage of the peptide at the Tyr moiety by analyzing the 30 μM TAS1 samples by LC/MS (FIG. 2).
With these new peptide sequences in hand, we returned to incorporating the Rh110-peptoid moiety and to compare the cleavage of TAS1-3 with the 20S CP. We incubated all three probes at various concentrations with 9 nM 20S CP and monitored the change in fluorescence using a microplate reader. […] In order to compare the three probes, we fit a linear regression for the points from 10-60 min for 30 μM of each probe to obtain a rate for the change in fluorescence (Table 1). Of the three, TAS1 was hydrolyzed the quickest, although the slope for TAS2 was similar. […] To confirm that the change in fluorescence was due to amide bond cleavage at the expected site on the peptide, we analyzed the samples at a concentration of 30 μM by LC/MS (FIG. 3).

For “TAS2: Rh110-based peptide/peptoid hybrid probe with Phe(4-Cl) as Tyr substitute (LLV[Phe(4-Cl)]; also: Rh110-based probe, place not given here, peptide/peptoid hybrid)”, the “Rate of Hydrolysis” value [1] was 5.8 ± 0.4 ΔRFU/min, the “Rate of Hydrolysis” value [2] was 16.4 ± 2.6 ΔRFU/min and the “Rate of Hydrolysis” value [3] was 39.6 ± 4.8 ΔRFU/min. The “Rate of Hydrolysis” value [4] was 6.7 ± 3.2 ΔRFU/min, the “Rate of Hydrolysis” value [5] was 81.6 ± 25.5 ΔRFU/min and the “Rate of Hydrolysis” value [6] was 12.1 ± 1.3 ΔRFU/min. For the same substance, the “Rate of probe cleavage in A549 cells (slope)” value [7] was “highest”, the “Rate of Hydrolysis” value ([8]; 9 nM purified 20S CP, linear regression 10-60 min) was 63.8 ΔRFU/min and the “Cleavage products after incubation with 20S CP (LC/MS)” value ([8]; LC/MS) was “only produced the expected cleavage products”.
